These results are taken from patent US8263605B2, “Modulators of muscarinic receptors” (Vertex Pharmaceutical Incorporated, priority 2006, dated 2012).

In experiment [1] the target is T1, M1 muscarinic receptor (Homo sapiens, UniProt P11229).
T1 construct: expressed in transfected cells; host or cells: CHO (M1-CHO)
T1 sequence (P11229 1-460): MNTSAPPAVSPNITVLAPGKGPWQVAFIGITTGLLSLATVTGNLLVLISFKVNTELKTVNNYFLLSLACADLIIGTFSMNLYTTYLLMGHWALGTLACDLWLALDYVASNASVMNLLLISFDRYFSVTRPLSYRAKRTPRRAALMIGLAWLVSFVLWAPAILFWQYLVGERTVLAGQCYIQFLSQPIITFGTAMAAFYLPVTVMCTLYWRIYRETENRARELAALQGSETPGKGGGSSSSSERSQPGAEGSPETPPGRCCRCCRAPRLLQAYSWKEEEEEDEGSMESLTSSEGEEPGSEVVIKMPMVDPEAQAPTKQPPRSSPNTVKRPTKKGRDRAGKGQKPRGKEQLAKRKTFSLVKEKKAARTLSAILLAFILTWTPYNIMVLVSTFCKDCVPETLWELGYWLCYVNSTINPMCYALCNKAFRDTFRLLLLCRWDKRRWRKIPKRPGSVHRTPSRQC
Put plainly: Functional mobilization of intracellular calcium (FLIPR), M1-CHO cells. The class given is cell-based. The following applies: for Emax: 100% efficacy is the maximum response obtained with the Carbachol control; for M1 Activity: CHO cells expressing M1, calcium mobilization. The gist of the method: (§1)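 Recombinant CHO cells loaded with Fluo-3 AM or Calcium 3 dye; fluorescence recorded 60 s on FLIPR in pH 7.4 buffer with 1 mM probenecid, 0.5% DMSO. Agonist mode: compound alone; antagonist mode: 15 min preincubation (or co-application) then carbachol at EC80. Efficacy relative to maximal carbachol response.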

Experiment [2] deals with T2, M4 muscarinic receptor (Homo sapiens, UniProt P08173).
T2 construct: expressed in transfected cells; host or cells: CHO (M4-CHO)
T2 sequence (P08173 1-479): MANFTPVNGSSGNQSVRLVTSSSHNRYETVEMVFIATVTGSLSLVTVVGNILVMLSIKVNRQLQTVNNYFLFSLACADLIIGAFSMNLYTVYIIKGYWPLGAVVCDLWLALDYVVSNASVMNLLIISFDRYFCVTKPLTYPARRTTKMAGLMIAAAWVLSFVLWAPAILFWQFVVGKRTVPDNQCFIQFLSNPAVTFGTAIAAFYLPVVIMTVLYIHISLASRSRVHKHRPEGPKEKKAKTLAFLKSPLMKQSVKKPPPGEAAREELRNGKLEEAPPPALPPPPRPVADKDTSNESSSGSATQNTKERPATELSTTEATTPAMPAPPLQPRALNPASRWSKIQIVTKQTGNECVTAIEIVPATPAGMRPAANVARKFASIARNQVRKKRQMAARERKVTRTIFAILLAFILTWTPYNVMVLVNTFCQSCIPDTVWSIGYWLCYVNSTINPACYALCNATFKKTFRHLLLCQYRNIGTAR
Put plainly: Functional mobilization of intracellular calcium (FLIPR), M4-CHO cells. Particulars: for Emax: 100% efficacy is the maximum response obtained with the Carbachol control; for M4 Activity: CHO cells expressing M4, calcium mobilization. The experiment is classed as cell-based. In short, it runs like this: as §1

Each structure is given as a SMILES string.

In the case of `CC(=O)N1CCC2(CCN(C3CCN(c4cnc5ccccc5n4)CC3)CC2)c2ccccc21` [compound 18], in experiment [1], the Emax lay within 25 to 100% and the “M1 Activity” value is recorded as “++ (activity was measured to be from 2.0 μM to 10.0 μM)”. For the same compound, in experiment [2], the maximal effect (Emax) is 25 to 100% and the “M4 Activity” value was “+++ (activity was measured to be less than 2.0 μM)”.
Take `CCOC(=O)N1CCCC(N2CCC3(CC2)CN(C(=O)N(C)C)c2ccccc23)CCC1` [compound 107]: in experiment [1], the maximal effect (Emax) is more than 100% and the “M1 Activity” value was “+++ (activity was measured to be less than 2.0 μM)”. Further, in experiment [2], the Emax is more than 100% and the “M4 Activity” value was “+++ (activity was measured to be less than 2.0 μM)”.
For the compound `CC(C)OC(=O)N1CCC(N2CCC3(CC2)CN(C(=O)N(C)C)c2ccccc23)CC1` [compound 41], in experiment [1], the maximal effect (Emax) was 25 to 100% and the “M1 Activity” value is “+++ (activity was measured to be less than 2.0 μM)”. For the same compound, in experiment [2], the maximal response (Emax) lay in the range of 25 to 100% and the “M4 Activity” value is on record as “+++ (activity was measured to be less than 2.0 μM)”.
Turning to `C#CCOC(=O)N1C2CCC1CC(N1CCC3(CC1)CN(C(=O)N(C)C)c1ccccc13)C2` (stereo not shown) [compound 94], in experiment [1], the maximum response (Emax) lay within 25 to 100% and the “M1 Activity” value is “+++ (activity was measured to be less than 2.0 μM)”. Also, in experiment [2], the maximal response (Emax) was in the range of 25 to 100% and the “M4 Activity” value is recorded as “+++ (activity was measured to be less than 2.0 μM)”.
Turning to `CC(=O)N1CCC2(CCN(C3CCN(c4nncs4)CC3)CC2)c2ccccc21` [compound 23], in experiment [1], the maximal effect (Emax) was in the range of 25 to 100% and the “M1 Activity” value is listed as “++ (activity was measured to be from 2.0 μM to 10.0 μM)”. Moreover, in experiment [2], the Emax lay within 25 to 100% and the “M4 Activity” value is “++ (activity was measured to be from 2.0 μM to 10.0 μM)”.
For the compound `CN(C)C(=O)N1CCC2(CCN(C3CCN(C(=O)OCCC#N)CC3)CC2)c2ccccc21` [compound 19], in experiment [1], the Emax is less than 25% and the “M1 Activity” value is given as “++ (activity was measured to be from 2.0 μM to 10.0 μM)”. In experiment [2], the maximal effect (Emax) lay within 25 to 100% and the “M4 Activity” value is “+++ (activity was measured to be less than 2.0 μM)”.
For `CN(C)C(=O)N1CCC2(CCN(C3CCN(c4nccs4)CC3)CC2)c2ccccc21` [compound 35], in that order: less than 25%, “++ (activity was measured to be from 2.0 μM to 10.0 μM)”, less than 25% and “++ (activity was measured to be from 2.0 μM to 10.0 μM)”.
